Columns and labels:
Rho kinase 2 (ROCK-II) = Rho kinase 2 (ROCK-II) (Homo sapiens, UniProt O75116); assay: In vitro Rho kinase inhibitory activity assay (ADP-Glo), Rho kinase 2; format: biochemical; details: 10 μM ATP, 25° C., expressed as range of activity
Protocol: (§1) The effectiveness of compounds of the present invention to inhibit Rho kinase activity can be determined in a 10 μl assay containing 40 mM Tris pH7.5, 20 mM MgCl2 0.1 mg/ml BSA, 50 μM DTT and 2.5 μM peptide substrate (Myelin Basic Protein) using an ADP-Glo kit (Promega). Compounds were dissolved in DMSO such that the final concentration of DMSO was 1% in the assay. All reactions/incubations are performed at 25° C. Compound (2 ul) and either Rho kinase 1 or 2 (4 μl) were mixed and incubated for 30 mins. Reactions were initiated by addition of ATP (4 μl) such that the final concentration of ATP in the assay was 10 μM. After a 1 hour incubation 10 μl of ADP-Glo Reagent was added and after a further 45 minute incubation 20 ul of Kinase Detection Buffer was added and the mixture incubated for a further 30 minutes. The luminescent signal was measured on a luminometer. […] Compounds were tested in dose-response format and the inhibition of kinase activity was calculated at each concentration of compound. To determine the IC50 (concentration of compound required to inhibit 50% of the enzyme activity) data were fit to a plot of % inhibition vs Log10 compound concentration using a sigmoidal fit with a variable slope and fixing the maximum to 100% and the minimum to 0%. To determine the Ki values the Cheng-Prusoff equation was utilized (Ki=IC50/(1+[S]/Km).

Rho kinase 1 (ROCK-I) = Rho kinase 1 (ROCK-I) (Homo sapiens, UniProt Q13464); assay: In vitro Rho kinase inhibitory activity assay (ADP-Glo), Rho kinase 1; format: biochemical; details: 10 μM ATP, 25° C., expressed as range of activity
Protocol: as §1

Rho kinase 1 (ROCK-I), sequence (Q13464 whole entry): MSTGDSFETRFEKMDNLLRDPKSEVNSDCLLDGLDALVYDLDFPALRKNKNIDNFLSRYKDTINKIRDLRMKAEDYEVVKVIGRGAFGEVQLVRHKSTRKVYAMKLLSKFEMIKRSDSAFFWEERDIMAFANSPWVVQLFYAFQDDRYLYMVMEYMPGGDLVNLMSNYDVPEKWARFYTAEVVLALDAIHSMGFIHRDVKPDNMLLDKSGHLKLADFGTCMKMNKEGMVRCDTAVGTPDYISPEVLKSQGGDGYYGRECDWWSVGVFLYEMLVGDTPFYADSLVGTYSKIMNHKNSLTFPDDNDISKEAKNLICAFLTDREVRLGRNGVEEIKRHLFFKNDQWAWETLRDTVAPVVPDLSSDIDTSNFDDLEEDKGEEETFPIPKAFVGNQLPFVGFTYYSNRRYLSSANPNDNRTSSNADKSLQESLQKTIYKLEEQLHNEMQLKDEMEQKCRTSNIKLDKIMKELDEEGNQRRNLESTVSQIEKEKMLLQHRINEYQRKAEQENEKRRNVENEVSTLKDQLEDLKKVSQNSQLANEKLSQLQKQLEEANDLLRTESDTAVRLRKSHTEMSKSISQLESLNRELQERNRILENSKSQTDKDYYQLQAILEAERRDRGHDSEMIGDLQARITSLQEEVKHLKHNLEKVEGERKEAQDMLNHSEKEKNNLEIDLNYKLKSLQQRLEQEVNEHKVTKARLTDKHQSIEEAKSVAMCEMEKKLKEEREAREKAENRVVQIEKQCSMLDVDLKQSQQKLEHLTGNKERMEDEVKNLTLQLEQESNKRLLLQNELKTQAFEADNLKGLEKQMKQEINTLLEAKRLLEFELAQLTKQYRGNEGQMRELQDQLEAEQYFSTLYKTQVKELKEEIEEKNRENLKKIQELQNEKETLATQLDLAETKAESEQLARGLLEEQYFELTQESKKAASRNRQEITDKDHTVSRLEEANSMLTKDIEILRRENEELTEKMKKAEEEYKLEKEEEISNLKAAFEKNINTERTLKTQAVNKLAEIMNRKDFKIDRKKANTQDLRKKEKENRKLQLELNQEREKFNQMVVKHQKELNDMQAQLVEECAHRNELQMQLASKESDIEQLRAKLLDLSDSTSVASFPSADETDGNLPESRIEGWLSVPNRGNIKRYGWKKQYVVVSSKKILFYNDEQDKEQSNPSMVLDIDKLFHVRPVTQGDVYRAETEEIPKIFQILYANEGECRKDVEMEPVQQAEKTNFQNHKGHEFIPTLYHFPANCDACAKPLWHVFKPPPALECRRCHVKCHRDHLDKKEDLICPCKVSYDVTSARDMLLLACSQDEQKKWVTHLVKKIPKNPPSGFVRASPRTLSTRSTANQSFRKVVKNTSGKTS
Rho kinase 2 (ROCK-II), sequence (O75116 whole entry): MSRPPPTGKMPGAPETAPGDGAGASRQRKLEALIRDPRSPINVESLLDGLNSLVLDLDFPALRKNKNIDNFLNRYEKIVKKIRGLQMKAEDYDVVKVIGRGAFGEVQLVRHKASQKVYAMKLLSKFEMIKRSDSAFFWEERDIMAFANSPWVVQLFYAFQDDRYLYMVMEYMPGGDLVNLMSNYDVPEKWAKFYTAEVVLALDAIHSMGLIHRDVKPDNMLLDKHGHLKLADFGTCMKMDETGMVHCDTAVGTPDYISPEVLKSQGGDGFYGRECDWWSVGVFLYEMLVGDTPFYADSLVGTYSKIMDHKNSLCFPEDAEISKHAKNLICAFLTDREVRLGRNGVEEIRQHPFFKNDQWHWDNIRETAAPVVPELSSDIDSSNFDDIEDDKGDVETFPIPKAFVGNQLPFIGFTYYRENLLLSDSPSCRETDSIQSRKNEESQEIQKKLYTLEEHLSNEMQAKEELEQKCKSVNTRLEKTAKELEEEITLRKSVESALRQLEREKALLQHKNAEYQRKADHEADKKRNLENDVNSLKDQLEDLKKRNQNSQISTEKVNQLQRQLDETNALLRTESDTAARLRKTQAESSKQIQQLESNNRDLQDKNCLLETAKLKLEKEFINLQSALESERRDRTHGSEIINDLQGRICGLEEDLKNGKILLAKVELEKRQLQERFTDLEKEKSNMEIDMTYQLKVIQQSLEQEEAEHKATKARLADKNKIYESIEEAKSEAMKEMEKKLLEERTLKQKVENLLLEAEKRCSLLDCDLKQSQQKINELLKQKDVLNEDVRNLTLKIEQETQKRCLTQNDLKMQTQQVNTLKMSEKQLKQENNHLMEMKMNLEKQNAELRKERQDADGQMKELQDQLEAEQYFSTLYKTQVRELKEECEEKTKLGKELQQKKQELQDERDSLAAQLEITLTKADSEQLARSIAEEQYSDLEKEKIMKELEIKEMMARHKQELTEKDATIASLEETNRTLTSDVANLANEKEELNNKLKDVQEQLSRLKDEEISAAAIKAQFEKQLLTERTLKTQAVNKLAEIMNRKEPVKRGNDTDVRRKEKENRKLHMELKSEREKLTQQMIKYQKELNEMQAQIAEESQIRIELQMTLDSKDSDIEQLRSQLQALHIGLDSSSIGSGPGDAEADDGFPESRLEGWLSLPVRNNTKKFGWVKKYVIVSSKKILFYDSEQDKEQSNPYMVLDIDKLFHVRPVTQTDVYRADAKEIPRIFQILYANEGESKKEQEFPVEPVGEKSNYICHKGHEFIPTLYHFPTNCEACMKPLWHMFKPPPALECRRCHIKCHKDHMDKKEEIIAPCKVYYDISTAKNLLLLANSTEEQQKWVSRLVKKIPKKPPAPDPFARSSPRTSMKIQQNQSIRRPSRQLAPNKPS

| SMILES | Ki (Rho kinase 2 (ROCK-II)) | Ki (Rho kinase 1 (ROCK-I)) |
| --- | --- | --- |
| Cc1c[nH]c2nccc(Oc3ccc(C[C@H](N)C(=O)N4CCN(C(=O)c5cn(C)cn5)CC4)cc3F)c12 [Example 176, (S)-2-amino-3-(3-fluoro-4-((3-methyl-1H-pyrrolo[2,3-b]pyridin-4-yl)oxy)phenyl)-1-(4-(1-methyl-1H-imidazole-4-carbonyl)piperazin-1-yl)propan-1-one] | < 3 nM | 3 to 30 nM |
| Cc1c[nH]c2ncnc(Oc3ccc(C[C@H](N)C(=O)N4C[C@@H]5C[C@H]4CN5C)cc3F)c12 [Example 121, 2-amino-3-(3-fluoro-4-((5-methyl-7H-pyrrolo[2,3-d]pyrimidin-4-yl)oxy)phenyl)-1-((1S,4S)-5-methyl-2,5-diazabicyclo[2.2.1]heptan-2-yl)propan-1-one] | 3 to 30 nM | 3 to 30 nM |
| N[C@@H](Cc1ccc(Oc2ccnc3[nH]ccc23)cc1)C(=O)Nc1ccc(Cl)nc1 [Example 94, (S)-3-(4-((1H-pyrrolo[2,3-b]pyridin-4-yl)oxy)phenyl)-2-amino-N-(6-chloropyridin-3-yl)propanamide] | < 3 nM | < 3 nM |
| Cc1c[nH]c2nccc(Oc3ccc(C[C@H](N)C(=O)N4CCC(Oc5cccnc5)CC4)cc3F)c12 [Example 11, (S)-2-amino-3-(3-fluoro-4-((3-methyl-1H-pyrrolo[2,3-b]pyridin-4-yl)oxy)phenyl)-1-(4-(pyridin-3-yloxy)piperidin-1-yl)propan-1-one] | < 3 nM | < 3 nM |
| Cc1nc(CN2CCN(C(=O)[C@@H](N)Cc3ccc(Oc4ccnc5[nH]cc(C)c45)c(F)c3)CC2)cs1 [Example 157, (S)-2-amino-3-(3-fluoro-4-((3-methyl-1H-pyrrolo[2,3-b]pyridin-4-yl)oxy)phenyl)-1-(4-((2-methylthiazol-4-yl)methyl)piperazin-1-yl)propan-1-one] | < 3 nM | < 3 nM |
| Cc1c[nH]c2nccc(Oc3ccc(C[C@H](N)C(=O)N4CCc5ncncc5C4)cc3F)c12 [Example 2, (S)-2-amino-1-(7,8-dihydropyrido[4,3-d]pyrimidin-6(5H)-yl)-3-(3-fluoro-4-((3-methyl-1H-pyrrolo[2,3-b]pyridin-4-yl)oxy)phenyl)propan-1-one] | < 3 nM | < 3 nM |
| CNC(=O)C(Cc1ccc(Oc2ccnc3[nH]ccc23)cc1)NCC1CCCCC1 (stereo not drawn) [Example 185, 3-(4-((1H-pyrrolo[2,3-b]pyridin-4-yl)oxy)phenyl)-2-((cyclohexylmethyl)amino)-N-methylpropanamide] | > 30 nM | > 30 nM |
| Cc1c[nH]c2nccc(Oc3ccc(C[C@H](N)C(=O)N4CCN(c5ccccc5)CC4)cc3F)c12 [Example 5, (S)-2-amino-3-(3-fluoro-4-((3-methyl-1H-pyrrolo[2,3-b]pyridin-4-yl)oxy)phenyl)-1-(4-phenylpiperazin-1-yl)propan-1-one] | < 3 nM | < 3 nM |
| CC(N)(Cc1ccc(Oc2ccnc3[nH]ccc23)cc1)C(=O)NC1CCCCC1 (stereo not drawn) [Example 150, 3-(4-((1H-pyrrolo[2,3-b]pyridin-4-yl)oxy)phenyl)-2-amino-N-cyclohexyl-2-methylpropanamide] | 3 to 30 nM | 3 to 30 nM |
| Cc1c[nH]c2nccc(Oc3ccc(C[C@H](N)C(=O)N4CCN(Cc5ccc(OCCCN(C)C)cc5)CC4)cc3F)c12 [Example 160, (S)-2-amino-1-(4-(4-(3-(dimethylamino)propoxy)benzyl)piperazin-1-yl)-3-(3-fluoro-4-((3-methyl-1H-pyrrolo[2,3-b]pyridin-4-yl)oxy)phenyl)propan-1-one] | < 3 nM | < 3 nM |
| CN(CC1CCCCC1)C(=O)[C@H](N)Cc1ccc(Oc2ccnc3[nH]ccc23)cc1 [Example 143, (R)-3-(4-((1H-pyrrolo[2,3-b]pyridin-4-yl)oxy)phenyl)-2-amino-N-(cyclohexylmethyl)-N-methylpropanamide] | > 30 nM | > 30 nM |
| Cc1c[nH]c2nccc(Oc3ccc(C[C@H](N)C(=O)N4CCOC(c5ccccc5)C4)cc3F)c12 (mixture of isomers) [Example 4, (2S)-2-amino-3-(3-fluoro-4-((3-methyl-1H-pyrrolo[2,3-b]pyridin-4-yl)oxy)phenyl)-1-(2-phenylmorpholino)propan-1-one] | < 3 nM | < 3 nM |

Continued, values first:

| Ki (Rho kinase 2 (ROCK-II)) | Ki (Rho kinase 1 (ROCK-I)) | SMILES |
| --- | --- | --- |
| < 3 nM | < 3 nM | Cc1c[nH]c2nccc(Oc3ccc(C[C@H](N)C(=O)N4CC(CN(C)C)C4)cc3F)c12 [Example 48, (S)-2-amino-1-(3-((dimethylamino)methyl)azetidin-1-yl)-3-(3-fluoro-4-((3-methyl-1H-pyrrolo[2,3-b]pyridin-4-yl)oxy)phenyl)propan-1-one] |
| < 3 nM | < 3 nM | Cc1c[nH]c2nccc(Oc3ccc(C[C@H](N)C(=O)N4C[C@@H]5C[C@H]4CN5C)cc3F)c12 [Example 25, (S)-2-amino-3-(3-fluoro-4-((3-methyl-1H-pyrrolo[2,3-b]pyridin-4-yl)oxy)phenyl)-1-((1S,4S)-5-methyl-2,5-diazabicyclo[2.2,1]heptan-2-yl)propan-1-one] |
| < 3 nM | < 3 nM | Cc1c[nH]c2nccc(Oc3ccc(C[C@H](N)C(=O)N4CCN(C(=O)C5CC5)CC4)cc3F)c12 [Example 170, (S)-2-amino-1-(4-(cyclopropanecarbonyl)piperazin-1-yl)-3-(3-fluoro-4-((3-methyl-1H-pyrrolo[2,3-b]pyridin-4-yl)oxy)phenyl)propan-1-one] |
| < 3 nM | < 3 nM | Cc1c[nH]c2nccc(Oc3ccc(C[C@H](N)C(=O)NC4(CO)CCCCC4)cc3F)c12 [Example 32, (S)-2-amino-3-(3-fluoro-4-((3-methyl-1H-pyrrolo[2,3-b]pyridin-4-yl)oxy)phenyl)-N-(1-(hydroxymethyl)cyclohexyl)propanamide] |
| < 3 nM | < 3 nM | CN1CCC(NC(=O)[C@@H](N)Cc2ccc(Oc3ccnc4[nH]cc(C#N)c34)c(F)c2)CC1 [Example 222, (S)-2-amino-3-(4-((3-cyano-1H-pyrrolo[2,3-b]pyridin-4-yl)oxy)-3-fluorophenyl)-N-(1-methylpiperidin-4-yl)propanamide] |
| < 3 nM | < 3 nM | CC(=O)N1CCN(C(=O)C(N)Cc2ccc(Oc3ccnc4[nH]cc(C)c34)c(F)c2)CC1 (stereo not drawn) [Example 133, 1-(4-acetylpiperazin-1-yl)-2-amino-3-(3-fluoro-4-((3-methyl-1H-pyrrolo[2,3-b]pyridin-4-yl)oxy)phenyl)propan-1-one] |
| < 3 nM | < 3 nM | N#Cc1c[nH]c2nccc(Oc3ccc(C[C@H](N)C(=O)NC4CCCCC4)cc3F)c12 [Example 221, (S)-2-amino-3-(4-((3-cyano-1H-pyrrolo[2,3-b]pyridin-4-yl)oxy)-3-fluorophenyl)-N-cyclohexylpropanamide] |
| < 3 nM | 3 to 30 nM | Cc1c[nH]c2nccc(Oc3ccc(CC(N)C(=O)N4CCN(C)CC4CO)cc3F)c12 (stereo not drawn) [Example 64, 2-amino-3-(3-fluoro-4-((3-methyl-1H-pyrrolo[2,3-b]pyridin-4-yl)oxy)phenyl)-1-(2-(hydroxymethyl)-4-methylpiperazin-1-yl)propan-1-one] |
| > 30 nM | > 30 nM | N[C@@H](Cc1ccc(Oc2ccnc3[nH]ccc23)cn1)C(=O)NC1CCCCC1 [Example 227, (S)-3-(5-((1H-pyrrolo[2,3-b]pyridin-4-yl)oxy)pyridin-2-yl)-2-amino-N-cyclohexylpropanamide] |
